Source: ChEMBL document CHEMBL1137624, “Synthesis and characterization of pyrrolidine derivatives as potent agonists of the human melanocortin-4 receptor” (Bioorg Med Chem Lett, 2007)
The source made the active and inactive calls. No cut-off for these calls is given here.

Legend:
[1] = Apparent permeability across apical to basolateral side of Caco-2 cells; type: ADME, cell-based; settings: human
[2] = AUC in rat at 10 mg/kg, po; type: ADME, organism-based; set-up: dose 10 mg/kg, route oral; settings: plasma
Melanocortin receptor 4 [3] = biological target: T1, Melanocortin receptor 4 (Homo sapiens, UniProt P32245); assay: Intrinsic activity at human MC4 receptor expressed in CHO cells assessed as cAMP accumulation relative to alpha-MSH; type: functional, cell-based
T1 sequence (P32245 whole entry): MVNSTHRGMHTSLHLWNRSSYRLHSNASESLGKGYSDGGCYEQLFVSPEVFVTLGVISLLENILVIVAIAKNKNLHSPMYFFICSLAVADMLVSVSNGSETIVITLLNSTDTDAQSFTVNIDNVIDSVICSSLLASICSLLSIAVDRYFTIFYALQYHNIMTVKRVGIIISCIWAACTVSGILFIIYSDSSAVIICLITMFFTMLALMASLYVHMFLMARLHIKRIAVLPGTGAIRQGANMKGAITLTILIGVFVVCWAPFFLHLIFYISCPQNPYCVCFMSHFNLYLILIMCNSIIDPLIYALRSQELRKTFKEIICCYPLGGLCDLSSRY

Melanocortin receptor 4 [4] = biological target: T1, Melanocortin receptor 4; assay: Agonist activity at human MC4 receptor expressed in CHO cells assessed as cAMP accumulation by ELISA; type: functional, cell-based
[5] = Distribution coefficient, log D by shake flake method; type: physicochemical; settings: octanol/water
Melanocortin receptor 3 = Melanocortin receptor 3 (Homo sapiens, UniProt P41968); assay: Binding affinity at human MC3 receptor
Melanocortin receptor 3, sequence (P41968 whole entry): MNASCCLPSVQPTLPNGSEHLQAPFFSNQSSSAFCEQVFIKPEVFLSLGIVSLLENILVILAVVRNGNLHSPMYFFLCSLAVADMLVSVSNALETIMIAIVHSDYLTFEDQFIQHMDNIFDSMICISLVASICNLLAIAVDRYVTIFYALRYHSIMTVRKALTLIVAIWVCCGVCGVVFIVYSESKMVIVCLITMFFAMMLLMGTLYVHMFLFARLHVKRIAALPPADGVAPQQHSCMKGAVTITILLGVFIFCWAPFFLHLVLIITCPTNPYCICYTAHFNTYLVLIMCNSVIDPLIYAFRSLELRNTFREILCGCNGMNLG

Melanocortin receptor 4 [6] = biological target: T1, Melanocortin receptor 4; assay: Displacement of [125I]NDP-MSH from human MC4 receptor expressed in HEK293 cells; type: cell-based
[7] = Half life in rat at 2.5 mg/kg, iv; type: ADME, organism-based; set-up: dose 2.5 mg/kg, route intravenous; settings: in vivo
[8] = biological target: Melanocyte-stimulating hormone receptor (Homo sapiens, UniProt Q01726); assay: Binding affinity at human MC1 receptor
Melanocyte-stimulating hormone receptor, sequence (Q01726 whole entry): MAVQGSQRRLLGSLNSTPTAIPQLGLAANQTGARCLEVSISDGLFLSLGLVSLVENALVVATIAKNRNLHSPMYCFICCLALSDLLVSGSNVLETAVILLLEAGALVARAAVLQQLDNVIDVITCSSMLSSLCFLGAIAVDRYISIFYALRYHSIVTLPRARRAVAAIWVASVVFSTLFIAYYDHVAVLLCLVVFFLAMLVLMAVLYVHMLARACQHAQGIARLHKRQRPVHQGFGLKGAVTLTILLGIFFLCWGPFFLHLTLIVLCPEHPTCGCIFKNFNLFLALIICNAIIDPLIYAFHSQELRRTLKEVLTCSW

Rattus norvegicus [9] = assay: Decrease in cumulative food intake in high-fat diet fed CD rat at 30 mg/kg, ip after 1 to 6 hrs; type: functional, organism-based; set-up: dose 30 mg/kg
[10] = Concentration in rat brain at 2.5 mg/kg, iv after 1 hr; type: ADME, organism-based; set-up: dose 2.5 mg/kg, route intravenous; settings: read-out: Drug uptake
[11] = Volume of distribution in rat at 2.5 mg/kg, iv; type: ADME, organism-based; set-up: dose 2.5 mg/kg, route intravenous; settings: in vivo
[12] = Ratio of drug level in brain to plasma in rat at 2.5 mg/kg, iv; type: ADME, organism-based; set-up: dose 2.5 mg/kg, route intravenous; settings: read-out: BPR
[13] = Oral bioavailability in rat at 10 mg/kg, po; type: ADME, organism-based; settings: in vivo
[14] = Plasma clearance in rat at 2.5 mg/kg, iv; type: ADME, organism-based; set-up: dose 2.5 mg/kg, route intravenous
[15] = Cmax in rat at 10 mg/kg, po after 3 hrs; type: ADME, organism-based; set-up: dose 10 mg/kg, route oral; settings: in vivo
Rattus norvegicus [16] = organism: Rattus norvegicus; assay: Decrease in cumulative food intake in high-fat diet fed CD rat after 24 hrs; type: functional, organism-based
Melanocortin receptor 5 = Melanocortin receptor 5 (Homo sapiens, UniProt P33032); assay: Binding affinity at human MC5 receptor
Melanocortin receptor 5, sequence (P33032 whole entry): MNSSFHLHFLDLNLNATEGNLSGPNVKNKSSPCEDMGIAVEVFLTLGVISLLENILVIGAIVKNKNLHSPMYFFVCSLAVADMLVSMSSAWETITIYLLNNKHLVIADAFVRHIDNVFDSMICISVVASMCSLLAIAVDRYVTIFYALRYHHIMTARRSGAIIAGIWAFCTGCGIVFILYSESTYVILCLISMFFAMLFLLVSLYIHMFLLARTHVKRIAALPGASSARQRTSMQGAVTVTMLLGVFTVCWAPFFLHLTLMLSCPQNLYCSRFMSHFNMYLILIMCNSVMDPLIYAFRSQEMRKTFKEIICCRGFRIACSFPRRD

Caco-2 = assay: Ratio of permeability from […] side of Caco-2 cells; type: ADME, cell-based; settings: human
[17] = Concentration in rat brain at 2.5 mg/kg, iv after 4 hrs; type: ADME, organism-based; set-up: dose 2.5 mg/kg, route intravenous; settings: read-out: Drug uptake

Papp A→B [1]: 0.8 ×10⁻⁶ cm/s
AUC [2]: 154 ng·h/mL
Intrinsic activity (Melanocortin receptor 4 [3]): 105%
EC50 (Melanocortin receptor 4 [4]): 24 nM
logD [5]: 1.8
Ki (Melanocortin receptor 3): 1600 nM
Ki (Melanocortin receptor 4 [6]): 11 nM
half-life [7]: 1620 min
Ki [8]: 3.35 µM
concentration at 1 h [10]: 5 ng/g
Vd [11]: 270 L/kg
Kp [12]: 0.7
bioavailability [13]: 22%
clearance [14]: 118 mL/min/kg
Cmax [15]: 16 ng/mL
Ki (Melanocortin receptor 5): 240 nM
Ratio (Caco-2): 25
concentration at 4 h [17]: 32 ng/g
Compound: Cc1ccc(N2CCN(C(=O)[C@@H]3CN(C4CCOCC4)C[C@H]3c3ccc(Cl)cc3)CC2)c([C@@H](N)C(C)C)c1
Activity (Rattus norvegicus [9]): Active
Activity (Rattus norvegicus [16]): Dose-dependent effect
